We go through five compounds from publication PMC7865555, “Mechanistic Studies of the Antiallergic Activity of Phyllanthus amarus Schum. & Thonn. and Its Compounds” (Molecules, 2021).

“And” between values parts separate entries of the source, which are not always exact repeats. Equal values may be shown once. Where a name gives a salt, the structure may show the parent alone.

Series [1] relates to histamine release from RBL-2H3. Nature of the series: Inhibitory effect on histamine release from RBL-2H3 (ELISA). It counts as cell-based. The settings on record: Rattus norvegicus, mean ± SEM, n = 3, read-out: Inhibitory activity towards histamine release. The method, then:
The bioassay was conducted as reported by Shahari, et al. and Abd Rani, et al.. In 24-well plates, 2 × 10^5 of RBL-2H3 cells were seeded in 400 µL per well. The cells were sensitized with 0.45 µg/mL anti-DNP IgE in 100 µL after two hours of incubation. The cells were incubated overnight until reaching 80% confluency. The cells were washed twice with 500 µL of enriched media before being constituted with 320 µL enriched media. After 10 min of incubation, the cells were treated with 40 µL of different concentration of test compounds and was incubated for another 10 min. The cells were treated with 20 µL of allergen, DNP-BSA (10 mg/mL), and further being incubated for another 30 min. The supernatant obtained was transferred into a microcentrifuge tube, and centrifuged for 20 min at 1000× g at 8 °C. The supernatant was transferred to the Histamine ELISA kit and the histamine quantification was conducted based on the ELISA manufacturer protocol given. The percentage of inhibition was measured using Equation (2). The control cell was assumed to have 100% histamine release with allergen added without any treatment while blank well corresponded to 0% cytokine release. Ketotifen fumarate was used as a positive control. (2) Percentage inhibition % = (1− OD test sample−OD blank/OD control−OD blank) × 100
(In general: An ELISA detects its analyte on a solid surface through an enzyme-linked reagent.)

The target in series [2] is T1, Histamine H1 (human) membrane preparation, in CHO-K1 cells (Homo sapiens, UniProt P35367).
T1 construct: purchased Perkin Elmer (Waltham, MA, USA); host or cells: CHO-K1 cells (recombinant expression, membrane preparation)
T1 sequence (P35367 whole entry): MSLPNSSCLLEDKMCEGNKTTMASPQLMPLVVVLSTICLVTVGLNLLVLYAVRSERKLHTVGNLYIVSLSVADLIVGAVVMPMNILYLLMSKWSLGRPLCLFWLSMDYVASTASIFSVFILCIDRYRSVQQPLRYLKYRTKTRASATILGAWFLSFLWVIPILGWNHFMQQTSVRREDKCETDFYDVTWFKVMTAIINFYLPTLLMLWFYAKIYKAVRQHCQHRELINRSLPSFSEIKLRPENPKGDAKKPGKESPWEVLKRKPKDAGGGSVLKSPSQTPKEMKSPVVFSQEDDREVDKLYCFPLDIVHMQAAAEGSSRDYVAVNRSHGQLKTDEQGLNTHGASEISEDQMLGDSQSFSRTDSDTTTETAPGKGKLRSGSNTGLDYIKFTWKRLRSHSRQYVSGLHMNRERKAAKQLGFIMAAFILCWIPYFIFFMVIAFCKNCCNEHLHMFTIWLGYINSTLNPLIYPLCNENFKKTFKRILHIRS
Nature of the series: Radioligand competition binding assay (3H-mepyramine). To be noted: for Ki: read-out: Radioassay (Ki). The method, then:
In determining the affinity of the ligands toward the receptor, competition radioligand binding was conducted. The assay was conducted by measuring the competition binding between a radioligand with a ligand. The concentration of the radioligand with the presence of the ligand and the receptor was determined by using a liquid scintillation counter. […] The Ki value which also known as the binding affinity of the ligand was determined using GraphPad Prism.
Pyrilamine (Mepyramine), [pyridinyl 5-3H], Membrane Target Systems: Histamine H1 (human) membrane preparation, in CHO-K1 cells, liquid scintillation cocktail (ULTIMA GOLD MV), pico pro vial, and glass fiber (GF) filter were obtained from Perkin Elmer (Waltham, MA, USA).
In preparation for bioassay analysis, 10 mg of test samples were dissolved in 1 mL of DMSO and were treated as the stock sample. […] The working test sample together with its stock sample were kept in 4 °C until further used.
The radioligand assay was conducted as reported by Strakhova and Esbenshade. […] The mixture was immediately added with 200 µL of histamine receptor membrane (5 µg protein/well). The mixture was incubated for an hour at room temperature while shaking on the shaker. After an hour incubation, the mixture was harvested on GF/B uni filter presoaked with 0.5% PEI for 3 min. The GF/B uni filter was rinsed a few times with a wash buffer before being dried for one and a half hours. Once the uni filter was dry, the punched filter was transferred to 4 mL pico pro vial and was soaked with 2 mL of liquid scintillation cocktail. The solution was vortexed for a few seconds before being quantified using the liquid scintillator. Ki value (nmol/L) was obtained by using Equation (3).
A general note: In a radioligand displacement assay an active substance lowers the binding of a labelled ligand.

Series [3] concerns beta-hexosaminidase release from RBL-2H3. Nature of the series: Inhibitory effect on beta-hexosaminidase release from RBL-2H3 (IgE/DNP-BSA). It counts as cell-based, rat. The method, then:
The bioassay was conducted as reported by Abd Rani, et al.. In the concentration of 2 × 10^5 cells in 400 µL per well, RBL-2H3 cells were seeded and incubated for 2 h. After 2 h, the cells were sensitized with anti-DNP IgE at a concentration of 0.45 µg/mL in 100 µL per well. The cells were incubated overnight until 80% confluent. The cells were washed with 500 µL Siraganian buffer (119 mM of sodium chloride (NaCl), 5 mM of potassium chloride (KCl), 5.6 mM of glucose, 0.4 mM of magnesium chloride (MgCl2), 1 mM of calcium chloride (CaCl2), 25 mM of piperazine-N,N′-bis(2-ethanesulfonic acid) (PIPES), 40 mM of sodium hydroxide (NaOH), 0.1% BSA; pH 7.2) twice before were added with 160 µL of Siraganian buffer and incubated for 10 min. The cells were then treated with different concentrations of test samples in 20 µL. After 10 min of incubation, allergen, DNP-BSA at a concentration of 10 mg/mL were added to the cells. The cells were incubated for another 30 min. The supernatant (50 µL) was transferred into 96-well plates and was added immediately with 50 µL of the substrate ([…] p-nitrophenyl-N-acetyl-β-D-glucosaminide in 0.1 M citrate buffer, pH 4.5). The cells were further incubated for 1 h and the reaction was stopped using a 200 µL stop solution (0.1 M Na2CO3/NaHCO3, pH 10.0). The absorbance was measured using the microplate reader at 405 nm. The percentage of inhibition was measured using Equation (1). Control cell was assumed to have 100% beta-hexosaminidase release with allergen added without any treatment while the normal cell was assumed to have 0% beta-hexosaminidase release with cell without any allergen and treatment added to the well. The blank well consisted of the test sample. Ketotifen fumarate was used as a positive control. (1) Percentage inhibition % = (1− OD test sample−OD blank−OD normal/OD control−OD normal) × 100

Another series deals with RBL-2H3 cell line. Nature of the series: Cell viability (MTT) assay on RBL-2H3 cells. The class given is cell-based, rat. To be noted: for Toxicity towards the cell (in words): RBL-2H3, all concentrations tested; for Concentration safe on the cell: RBL-2H3, maintaining approximately 70% cell viability. The method, then:
(§1) RBL-2H3 cells were obtained from the Japanese Collection of Research Bioresources (JCRB) cell bank with a cell number of JCRB0023. The cells were cultured in enriched media (MEM containing 10% FBS and 1% penicillin-streptomycin (10 000 U/mL)). Once the cells reaching passage 3 (P3) with 80% confluency and showing stable growth and morphology, the cells were used for the bioassays. Only cells from passage 3 (P3) to passage 5 (P5) were used for the bioassays’ studies.
(§2) The cell viability assay was conducted as reported by Shahari, et al.. RBL-2H3 cells were seeded in 96-well plates in 100 µL at the concentration of 5 × 10^5 /mL. […] The cells were incubated for 4 h. 10 µL of MTT (5 mg/mL in PBS buffer) was added to the mixture and was incubated for 4 h at 37 °C. Upon the appearance of purple formazan crystal, the media was removed and 100 µL of DMSO was added to the well plates to dissolve the crystal. After 10 min of shaking the well plates on a shaker, the absorbance was immediately measured using a microplate reader at 570 nm.

Series [4] is described as follows: Cell viability (MTT) assay on RBL-2H3 cells. To be noted: rat, RBL-2H3 cells; for viability at 4 h, 2.5 µg/mL: RBL-2H3, 2.5 µg/mL; for viability at 4 h, 5 µg/mL: RBL-2H3, 5 µg/mL; for viability at 4 h, 10 µg/mL: RBL-2H3, 10 µg/mL; for viability at 4 h, 25 µg/mL: RBL-2H3, 25 µg/mL; for viability at 4 h, 50 µg/mL: RBL-2H3, 50 µg/mL; for viability at 4 h, 100 µg/mL: RBL-2H3, 100 µg/mL. The class given is cell-based, rat. As to the method: as §1, §2

Setting [5] is: pH 7.4, 1 h incubation, 3H-mepyramine.
The mark [6] stands for this setting: Rattus norvegicus, mean ± SEM, n = 3, read-out: Inhibitory activity towards beta-hexosaminidase release.

`COC[C@H](Cc1ccc(OC)c(OC)c1)[C@H](COC)Cc1cc(OC)c2c(c1)OCO2` [Niranthin (3), niranthin]: in series [1], the inhibition at 5 µg/mL worked out at 34.7 ± 12.2%, the inhibition at 10 µg/mL is 59 ± 22.2% and the inhibition at 25 µg/mL worked out at 41.2 ± 31.2%. Moreover, in series [2] (setting [5]), the Ki was 440 pM and 444 pM. Further, the “Inhibition of beta-hexosaminidase release (in words)” value (shortened to “Inhibition … (in words)”) in series [3] is “inhibited the release of beta-hexosaminidase”. Further, in series [3] (setting [6]), the inhibition at 10 µg/mL is 29.3 ± 5.81%, the inhibition at 25 µg/mL came to 31.3 ± 7.43% and the inhibition at 50 µg/mL worked out at 32.1 ± 7.27%. In addition, the “Toxicity towards the cell (in words)” value with RBL-2H3 cell line is “not toxic towards the cell”. Besides, in series [4], the viability at 4 h, 2.5 µg/mL was 104 ± 5.79%; the viability at 4 h, 5 µg/mL is 79.4 ± 8.96%; the viability at 4 h, 10 µg/mL amounted to 96.5 ± 7.33%; the viability at 4 h, 25 µg/mL came to 85.4 ± 11.6%. Also, in series [4], the viability at 4 h, 50 µg/mL was 96.63 ± 0.63% and the viability at 4 h, 100 µg/mL stood at 86.3 ± 12.4%.

Regarding `O=C(O[C@@H]1O[C@@H]2COC(=O)c3cc(O)c(O)c(O)c3-c3c(cc(O)c(O)c3O)C(=O)O[C@H]([C@H]1O)[C@@H]2O)c1cc(O)c(O)c(O)c1` [Corilagin (4), corilagin], the “Affinity towards the H1 receptor (in words)” value in series [2] (competition radioligand assay) was “did not show any affinity towards the receptor”. For the same compound, the “Radioassay (Ki)” value in series [2] (setting [5]) was “Not converged”. In series [3] (setting [6]), the inhibition at 10 µg/mL came out at 2.43 ± 3.26%, the inhibition at 25 µg/mL was determined as 5.12 ± 2.09% and the inhibition at 50 µg/mL turned out to be 6.68 ± 1.71%. Further, the “Toxicity towards the cell (in words)” value in the series with RBL-2H3 cell line is “not toxic towards the cell”. Moreover, in series [4], the viability at 4 h, 2.5 µg/mL worked out at 87.1 ± 4.31%; the viability at 4 h, 5 µg/mL worked out at 81.1 ± 14.8%; the viability at 4 h, 10 µg/mL was 93.7 ± 15.4%; the viability at 4 h, 25 µg/mL worked out at 103 ± 12.1%. In series [4], the viability at 4 h, 50 µg/mL stood at 104 ± 7.35% and the viability at 4 h, 100 µg/mL worked out at 101 ± 7.2%.

Regarding `CN1CCC(=C2c3ccccc3CC(=O)c3sccc32)CC1` [Ketotifen fumarate, reference compound], in series [1], the inhibition at 5 µg/mL was 3.9 ± 6.8%, the inhibition at 10 µg/mL was 44.7 ± 23% and the inhibition at 25 µg/mL turned out to be 58.7 ± 23.2%. For the same compound, in series [3] (setting [6]), the inhibition at 5 µg/mL came to 17.7 ± 1.05%, the inhibition at 10 µg/mL was found to be 22.2 ± 0.75% and the inhibition at 25 µg/mL came out at 27.4 ± 0.58%. Further, in the series with RBL-2H3 cell line, the “Concentration safe on the cell” value was “below 50 µg/mL”. Besides, in series [4], the viability at 4 h, 2.5 µg/mL came out at 91.9 ± 6.16%; the viability at 4 h, 5 µg/mL was determined as 90.1 ± 3.89%; the viability at 4 h, 10 µg/mL was determined as 86.8 ± 6.47%; the viability at 4 h, 25 µg/mL stood at 87.4 ± 1.17%. Besides, in series [4], the viability at 4 h, 50 µg/mL turned out to be 83.8 ± 4.1% and the viability at 4 h, 100 µg/mL came to 28.9 ± 4.87%.

With `COC[C@@H](Cc1ccc(OC)c(OC)c1)[C@@H](COC)Cc1ccc(OC)c(OC)c1` [Phyllanthin (1), phyllanthin], in series [1], the inhibition at 2.5 µg/mL was -3.05 ± 7.93%, the inhibition at 5 µg/mL is 55.8 ± 19.3% and the inhibition at 10 µg/mL was -11.6 ± 70.8%. Also, the “Inhibition … (in words)” value in series [3] is “inhibited the release of beta-hexosaminidase”. Also, in series [3] (setting [6]), the inhibition at 2.5 µg/mL came out at 26.4 ± 3.18%, the inhibition at 5 µg/mL worked out at 37.9 ± 6.51% and the inhibition at 10 µg/mL came to 38.4 ± 8.72%. The “Concentration safe on the cell” value in the series with RBL-2H3 cell line is “below 50 µg/mL”. In series [4], the viability at 4 h, 2.5 µg/mL was 92 ± 1.13%; the viability at 4 h, 5 µg/mL worked out at 76.6 ± 3.77%; the viability at 4 h, 10 µg/mL was found to be 84.3 ± 6.83%; the viability at 4 h, 25 µg/mL was 82.1 ± 4.03%. For the same compound, in series [4], the viability at 4 h, 50 µg/mL is 74.2 ± 7.99% and the viability at 4 h, 100 µg/mL is 53.5 ± 0.65%.

For `COC[C@@H]1Cc2cc(OC)c3c(c2[C@H](c2ccc(OC)c(OC)c2)[C@H]1COC)OCO3` [Hypophyllanthin (2), hypophyllanthin], the inhibition at 1.25 µg/mL in series [1] (1.25 µg/mL) amounted to 16.4 ± 46.6%. In series [1], the inhibition at 2.5 µg/mL amounted to 11.9 ± 64.3% and the inhibition at 5 µg/mL was 71.2 ± 34.7%. The inhibition constant Ki in series [2] (setting [5]) amounted to 40 pM. In series [3], the “Inhibition … (in words)” value was “inhibited the release of beta-hexosaminidase”. Also, in series [3] (Rattus norvegicus, 1.25 µg/mL, mean ± SEM, n = 3, read-out: Inhibitory activity towards beta-hexosaminidase release), the inhibition at 1.25 µg/mL amounted to 23.9 ± 3.31%. In series [3] (setting [6]), the inhibition at 2.5 µg/mL was found to be 32.3 ± 4.99% and the inhibition at 5 µg/mL came to 32.3 ± 4.51%. For the same compound, the “Concentration safe on the cell” value with RBL-2H3 cell line is “below 25 µg/mL”. Further, in series [4], the viability at 4 h, 2.5 µg/mL amounted to 93 ± 9.69%; the viability at 4 h, 5 µg/mL came out at 91 ± 10.4%; the viability at 4 h, 10 µg/mL was 114 ± 8.89%; the viability at 4 h, 25 µg/mL amounted to 62.46 ± 0.56%. In addition, in series [4], the viability at 4 h, 50 µg/mL amounted to 40.6 ± 4.17% and the viability at 4 h, 100 µg/mL is 28.1 ± 4.13%.

A word on the Ki: it is the equilibrium dissociation constant of an inhibitor or competing ligand from its target. By viability is commonly meant a read-out of living cells in per cent, often relative to untreated cells.
